Test results: patent US10653651B2, “Kit for treating cancer with low molecular weight components of aurin tricarboxylic acid complex” (Aurin Biotech Inc., priority 2014, dated 2020)
Read-outs that look alike come from different tables or passages of the source.

Columns and labels:
[1] = test system: human bone osteosarcoma MNNG cells; test: Lactic dehydrogenase release from MNNG cells; type: cell-based; settings: n=4, read-out: IC50, lactate dehydrogenase release from MNNG cells
Procedure: (§1) Experiment 4 was designed to confirm apoptotic cell death of U251 cells induced by ATA, AQA, AHA, and ATAC by measuring release of lactic dehydrogenase into the cell medium. For serum lactate dehydrogenase determination, reaction supernatants ([…]) were pipetted into the wells of 96-well plates, followed by the addition of […] lactate solution (36 mg/mL in PBS) and […] INT (iodonitrotetrazolium chloride, 2-(4-iodophenyl)-3-(4-nitrophenyl)-5-phenyl-2H-tetrazolium chloride) solution (2 mg/mL in PBS). The enzymatic reaction was started by addition of […] of NAD^+/diaphorase solution (3 mg/mL NAD^+; 2.3 mg solid/mL diaphorase). After 1 h, optical densities were measured with a microplate reader using a 490 nm filter. The amount of LDH released was expressed as a percentage of the value obtained in comparative cells where cells were 100% lysed by 1% Triton X-100.
Experiment 22 was designed to determine if apoptotic death of human bone osteosarcoma MNNG cells was induced by ATA, AQA, AHA, and ATAC as determined by the release of lactic dehydrogenase into the cell medium. The protocol was identical to that used in Experiment 19(d) except that human bone osteosarcoma MNNG cells were used.

U251 cells = test: Lactic dehydrogenase release from U251 cells; type: cell-based, human; settings: n=4, read-out: IC50, lactate dehydrogenase release from U251 cells
Procedure: as §1

[2] = test system: K562 human chronic myelogenous leukemia cells; test: Lactic dehydrogenase release from K562 cells; type: cell-based; settings: n=4, read-out: IC50, lactate dehydrogenase release from K562 cells
Procedure: as §1
Experiment 18 was designed to determine if apoptotic cell death of K562 human chronic myelogenous leukemia cells was induced by ATA, AQA, AHA, and ATAC as determined by the release of lactic dehydrogenase into the cell medium. The protocol was identical to that used in Experiment 16(b) except that K562 human chronic myelogenous leukemia cells were used.

[3] = test system: A549 human lung cancer cell line; test: A549 cell growth in zymosan-activated human serum (MTT cell viability); type: cell-based; settings: A549 cells, 15% human serum, n=4, read-out: IC50, inhibition of A549 cell growth induced by zymosan-activated human serum complement
Procedure: (§2) Experiment 1 was designed to determine the effect of ATA, AHA, AQA and ATAC on U251 cell growth in the presence of complement activated human serum. In Experiment 1(a), U251 cells were treated with various concentrations of human serum (1, 5, 7.5, 10, 12.5, 15%) in DMEM and incubated with 1 μg/mL zymosan at 37° C. for 72 h. Control U251 cells (CON) were incubated in fresh DMEM only. As a further control U251 cells were treated with 10% human serum heated at 56° C. for 30 min to heat inactivate complement (HIS) before incubation with 1 μg/ml zymosan. In Experiment 1(b), U251 cells were treated with various concentrations of ATAC, ATA, AQA and AHA (0.1, 1, 5, 10, 30, 50 μM) in DMEM with 15% human serum and incubated with 1 μg/mL zymosan at 37 ° C. for 72 h. In both Experiments 1(a) and 1(b), following incubation, cell viability was evaluated by MTT (3-[4,5-dimethylthiazol-2-yl]-2,5 diphenyl tetrazolium bromide) assays by adding MTT to the cell cultures to reach a final concentration of 1 mg/mL. Following a 1 h incubation at 37° C., the dark crystals formed were dissolved by adding a SDS/DMF extraction buffer (300 μL, 20% sodium dodecyl sulfate, 50% N,N-dimethylformamide, pH 4.7). Plates were subsequently incubated overnight at 37° C. and optical densities at 570 nm were measured by transferring 100 μL aliquots to 96-well plates and using a plate reader with a corresponding filter.
Experiment 5 was designed to determine the effect of ATA, AHA, AQA and ATAC on BxPC-3 cell growth in the presence of complement activated human serum.
Experiment 9 was designed to determine the effect of ATA, AQA, AHA and ATAC on A549 cell growth. The protocol was identical to that used in Experiment 5(b) except A549 cells were used.

[4] = test system: human carcinoma SW 480 cells; test: Lactic dehydrogenase release from SW 480 cells; type: cell-based; settings: n=4, read-out: IC50, lactate dehydrogenase release from SW 480 cells
Procedure: as §1
(§3) Experiment 23 was designed to determine the effect of ATA, AQA, 15 AHA and ATAC on growth of the human colorectal cancer cell line SW 480. The protocol was identical to that used in Experiment 15(b) except that human colorectal cancer SW480 cells were utilized. Experiment 24 was designed to determine if apoptotic death of human carcinoma SW 480 cells was induced by ATA, AQA, AHA, and ATAC as determined by the release of lactic dehydrogenase into the cell medium. The protocol was identical to that used in Experiment 15(d) except that human carcinoma SW480 cells were used and the growth medium was DMEM.

BT 474 cells = test: Lactic dehydrogenase release from BT 474 cells; type: cell-based, human; settings: n=4, read-out: IC50, lactate dehydrogenase release from BT 474 cells
Procedure: as §1
Experiment 14 was designed to determine if apoptotic cell death of BT 474 cells was induced by ATA, AQA, AHA, and ATAC as determined by the release of lactic dehydrogenase into the cell medium. The protocol was identical to that used in Experiment 5(d) except that BT 474 cells were used.

[5] = test system: human colorectal cancer cell line SW 480; test: SW 480 cell growth in zymosan-activated human serum (MTT cell viability); type: cell-based; settings: 15% human serum, n=4, read-out: IC50, inhibition of SW 480 cell growth induced by zymosan-activated human serum complement
Procedure: as §2, §3

[6] = test system: colorectal adenocarcinoma LS180 cells; test: Lactic dehydrogenase release from LS180 cells; type: cell-based, human; settings: n=4, read-out: IC50, lactate dehydrogenase release from LS180 cells
Procedure: as §1
Experiment 20 was designed to determine if apoptotic death of colorectal adenocarcinoma LS180 cells was induced by ATA, AQA, AHA, and ATAC as determined by the release of lactic dehydrogenase into the cell medium. The protocol was identical to that used in Experiment 18(b) except that colorectal adenocarcinoma cells were used.

BxPC-3 cells = test: Lactic dehydrogenase release from BxPC-3 cells; type: cell-based, human; settings: n=4, read-out: IC50, lactate dehydrogenase release from BxPC-3 cells
Procedure: as §1
Experiment 8 was designed to confirm apoptotic cell death of BxPC-3 cells induced by ATA, AQA, AHA, and ATAC by the release of lactic dehydrogenase into the cell medium.

[7] = test system: human bone osteosarcoma MNNG cells; test: MNNG cell growth in zymosan-activated human serum (MTT cell viability); type: cell-based; settings: 15% human serum, n=4, read-out: IC50, inhibition of MNNG cell growth induced by zymosan-activated human serum complement
Procedure: as §2
Experiment 21 was designed to determine the effect of ATA, AQA, AHA and ATAC on growth of the human bone osteosarcoma MNNG cell line. The protocol was identical to that used in Experiment 19 (b) except that human bone osteosarcoma MNNG cells were utilized.

Row | Compound | IC50 ([1]; Homo sapiens) | IC50 (U251 cells; Homo sapiens, U-251, LDH as % of Triton X-100 lysis) | IC50 ([2]; Homo sapiens) | IC50 [3] | IC50 ([4]; Homo sapiens, SW480, DMEM) | IC50 (BT 474 cells; Homo sapiens) | IC50 ([5]; SW480, SW 480 cells) | IC50 ([6]; Homo sapiens) | IC50 (BxPC-3 cells; Homo sapiens) | IC50 [7] | IC50 [1] | IC50 (U251 cells; LDH as % of Triton X-100 lysis) | IC50 [2] | IC50 ([4]; DMEM) | IC50 (BT 474 cells) | IC50 ([5]; SW 480 cells) | IC50 [6] | IC50 (BxPC-3 cells)
1 | O=C(O)C1=CC(=C(c2ccc(O)c(C(=O)O)c2)c2ccc(O)c(C(=O)O)c2)C=CC1=O [ATA, aurin tricarboxylic acid] | 6.5 µM | 7.6 µM | 4.7 µM | 7.2 µM | 4.7 µM | 4.8 µM | 7 µM | 4.9 µM | 7.9 µM | 7.2 µM |  |  |  |  |  |  |  | 
2 | aurin hexacarboxylic acid [AHA] |  |  |  | 7.5 µM |  |  |  |  |  | 7.5 µM | 6.6 µM | 7.7 µM | 4.6 µM | 4.9 µM | 4.9 µM | 6.8 µM | 5 µM | 8.1 µM
3 | aurin quadracarboxylic acid [AQA] |  |  |  | 7.4 µM |  |  |  |  |  | 7.4 µM | 6.4 µM | 7.4 µM | 4.6 µM | 4.6 µM | 4.7 µM | 7 µM | 5.1 µM | 8 µM
